# Test results from article PMC6154995, “Heme-dependent Inactivation of 5-Aminolevulinate Synthase from Caulobacter crescentus” (Scientific Reports, 2018).
# Experiments:
# Format in all cases: binding
# [1] = target: T1, 5-aminolevulinate synthase (cALAS) (Caulobacter vibrioides, UniProt Q9A8J8, C398A/H340A); test: apparent Kd from spectrophotometric titration; settings: read-out: KdGly,app /
# T1 construct: gene CC_1355; recombinant cALAS H340A/C398A, PLP form
# [2] = target: T2, 5-aminolevulinate synthase (cALAS) (Caulobacter vibrioides, UniProt Q9A8J8, C398A); test: apparent Kd from spectrophotometric titration; settings: read-out: KdGly,app /
# T2 construct: gene CC_1355; recombinant cALAS C398A, PLP form
# [3] = target: T3, 5-aminolevulinate synthase (cALAS) (Caulobacter vibrioides, UniProt Q9A8J8, H340A); test: apparent Kd from spectrophotometric titration; settings: read-out: KdGly,app /
# T3 construct: gene CC_1355; recombinant cALAS H340A, PLP form
# [4] = target: T4, 5-aminolevulinate synthase (cALAS) (Caulobacter vibrioides, UniProt Q9A8J8); test: UV/Vis spectrophotometric titration; design: gene CC_1355; recombinant full-length cALAS, PLP form
# [5] = target: T4, 5-aminolevulinate synthase (cALAS); test: UV/Vis and CD at […] nm; HPLC of PLP from purified enzyme; design: gene CC_1355; recombinant full-length cALAS, C-terminal His6-tag
# [6] = target: T5, 5-aminolevulinate synthase (cALAS) (Caulobacter vibrioides, UniProt Q9A8J8, D214A); test: UV/Vis titration of apoenzyme with PLP
# T5 construct: gene CC_1355; D214A apo-cALAS
# T5 sequence (Q9A8J8 1-408 D214A): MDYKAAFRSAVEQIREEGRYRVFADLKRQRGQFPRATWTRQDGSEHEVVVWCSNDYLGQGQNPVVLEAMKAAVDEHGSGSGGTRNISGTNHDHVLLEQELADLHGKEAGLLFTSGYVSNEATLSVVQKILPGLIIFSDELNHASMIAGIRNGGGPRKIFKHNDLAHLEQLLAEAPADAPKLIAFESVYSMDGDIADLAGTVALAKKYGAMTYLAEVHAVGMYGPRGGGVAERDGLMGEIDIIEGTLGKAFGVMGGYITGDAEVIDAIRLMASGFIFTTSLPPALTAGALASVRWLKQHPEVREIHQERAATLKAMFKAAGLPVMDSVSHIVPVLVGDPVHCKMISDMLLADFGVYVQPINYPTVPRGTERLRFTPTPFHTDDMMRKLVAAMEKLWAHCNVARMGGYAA
# T4 sequence (Q9A8J8 1-408): as the sequence (Q9A8J8 1-408 D214A) above, with A214D counted along it
# T1 sequence (Q9A8J8 1-408 H340A/C398A): as the sequence (Q9A8J8 1-408 D214A) above, with A214D, H340A, C398A counted along it
# T2 sequence (Q9A8J8 1-408 C398A): as the sequence (Q9A8J8 1-408 D214A) above, with A214D, C398A counted along it
# T3 sequence (Q9A8J8 1-408 H340A): as the sequence (Q9A8J8 1-408 D214A) above, with A214D, H340A counted along it
SMILES,Kd [1] [mM],Kd [2] [mM],Kd [3] [mM],Kd [4] [mM],UV/Vis and CD at 424 nm; HPLC of PLP from purified enzyme [5],UV/Vis titration of apoenzyme with PLP [6]
NCC(=O)O [glycine],6.46 ± 1.5,13.6 ± 3.1,11.5 ± 1.17,10.6 ± 1.35,–,–
Cc1ncc(COP(=O)(O)O)c(C=O)c1O [pyridoxal 5′-phosphate],–,–,–,–,a peak for PLP was observed for the PLP form of cALAS,"upon PLP titration, cALAS displayed spectral changes supporting internal Schiff-base formation between PLP and Lys248"
